Consider 1 compound from publication PMC4551558, “Differential inhibition of PDKs by phenylbutyrate and enhancement of pyruvate dehydrogenase complex activity by combination with dichloroacetate” (Journal of Inherited Metabolic Disease, 2015).

For test [1], the target named is PDK3 (Homo sapiens, UniProt Q15120). Briefly: […]-phosphate incorporation into recombinant E1alpha by recombinant human PDK3; Lineweaver-Burk kinetics. Format: biochemical. As to conditions: read-out: Ki (phenylbutyrate).
Chain of PDK3 (Q15120 whole entry): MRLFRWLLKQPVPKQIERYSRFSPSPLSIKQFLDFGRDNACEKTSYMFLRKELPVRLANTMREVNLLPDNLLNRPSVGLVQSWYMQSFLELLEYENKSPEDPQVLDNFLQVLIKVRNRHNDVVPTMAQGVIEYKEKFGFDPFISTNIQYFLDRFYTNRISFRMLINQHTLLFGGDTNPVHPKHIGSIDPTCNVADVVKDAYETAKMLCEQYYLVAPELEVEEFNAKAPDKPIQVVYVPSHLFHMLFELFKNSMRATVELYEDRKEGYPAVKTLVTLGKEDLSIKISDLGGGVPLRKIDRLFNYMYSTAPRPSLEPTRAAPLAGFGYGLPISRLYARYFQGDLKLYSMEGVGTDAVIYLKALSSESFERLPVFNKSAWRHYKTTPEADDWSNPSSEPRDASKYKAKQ
Chain of PDK3 (P08559 30-390 partner): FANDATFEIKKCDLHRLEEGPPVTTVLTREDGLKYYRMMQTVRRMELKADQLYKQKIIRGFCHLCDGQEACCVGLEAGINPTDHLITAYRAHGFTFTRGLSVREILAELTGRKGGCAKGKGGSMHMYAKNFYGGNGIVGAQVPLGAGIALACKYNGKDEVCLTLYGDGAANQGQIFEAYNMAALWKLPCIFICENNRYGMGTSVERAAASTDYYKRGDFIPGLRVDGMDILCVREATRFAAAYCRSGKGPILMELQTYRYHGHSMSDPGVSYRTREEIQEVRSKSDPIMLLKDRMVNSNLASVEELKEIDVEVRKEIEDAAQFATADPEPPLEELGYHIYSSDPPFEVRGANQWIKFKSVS
Test [2] deals with PDK1 (Homo sapiens, UniProt Q15118). As to the kind of experiment: […]-phosphate incorporation into recombinant E1alpha by recombinant human PDK1; Lineweaver-Burk kinetics. Format: biochemical. As to conditions: read-out: Ki (phenylbutyrate).
Chain of PDK1 (Q15118 29-436): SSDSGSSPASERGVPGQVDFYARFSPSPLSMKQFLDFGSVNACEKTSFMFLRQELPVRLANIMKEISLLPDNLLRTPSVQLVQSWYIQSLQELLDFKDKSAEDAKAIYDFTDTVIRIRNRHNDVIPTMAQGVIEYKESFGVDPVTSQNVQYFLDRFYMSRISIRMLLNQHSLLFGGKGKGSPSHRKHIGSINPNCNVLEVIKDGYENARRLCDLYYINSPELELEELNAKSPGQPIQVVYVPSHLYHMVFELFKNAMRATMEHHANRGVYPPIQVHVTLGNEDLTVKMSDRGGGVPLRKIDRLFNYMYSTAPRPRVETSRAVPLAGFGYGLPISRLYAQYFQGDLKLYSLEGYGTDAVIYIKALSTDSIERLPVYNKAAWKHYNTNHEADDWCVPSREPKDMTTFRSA
Chain of PDK1 (P08559 30-390 partner): as the sequence (P08559 30-390 partner) above

Structures are written as SMILES.

Consider `O=C(O)CCCc1ccccc1` [PB, phenylbutyrate], for which the Ki in test [1] was found to be 0.98 ± 0.19 mM; in test [2], 7.1 ± 0.15 mM.

By Ki is commonly meant the dissociation constant of the complex between target and ligand, obtained from inhibition or displacement.
